Test results taken from patent publication US11453690B2, “Receptor inhibitor, pharmaceutical composition comprising same, and use thereof” (BEIJING TIDE PHARMACEUTICAL CO., LTD., priority 2018, dated 2022).

Tests used:
AT1 Receptor (AT1R) = AT1 Receptor (AT1R) (Homo sapiens (Human), UniProt P30556); assay: Measurement of inhibitory activity on AT1 receptor (Tag-lite HTRF, Tb-labeled AT1R cells, angiotensin receptor red agonist); format: binding; settings: 1 h room temperature
Protocol: Measurement of Inhibitory Activity on AT1 Receptor ([…])/AT2 Receptor (AT2R)
Through the following steps, the inhibitory activity of the compound on AT1R/AT2R (IC50 value) was determined:
1) An appropriate amount of 1×TLB (Tag-lite Buffer) was prepared and well mixed for use.
2) The compound was diluted by 10 times with ddH2O or DMSO. The compound was then dilute to 4 times of the working concentration with 1×TLB and mixed well for use.
3) 8600 nM Tag-lite angiotensin receptor red agonist was diluted to 12 nM (4×Kd) with 1×TLB.
4) 5 ml 1×TLB was taken into a 15 ml centrifuge tube.
5) After thawing 1 tube of Tb-labeled AT1R/AT2R cells in a 37° C. water bath, the cells were quickly transferred to the 1×TLB in step 4), mixed gently, and centrifuged at 1200 g for 5 minutes at room temperature.
6) The supernatant was aspirated gently, and the cells were resuspended and mixed in 2.7 ml 1×TLB, and then placed at room temperature until use.
7) 10 μl cells were added to all test wells, and 5 μl 4× working solution of the compound from step 2) was added to the corresponding test wells. 5 μl 4× Tag-lite angiotensin receptor red agonist well diluted in step 3) was added to all test wells.
8) After leaving the reaction plate at room temperature for 1 h, data were measured and analyzed using Envision HTRF Reader, and the half inhibitory concentration (IC50) of the compound on AT1R/AT2R was calculated with the GraphPad Prism four-parameter equation.

AT2 Receptor (AT2R) = AT2 Receptor (AT2R) (Homo sapiens (Human), UniProt P50052); assay: Measurement of inhibitory activity on AT2 receptor (Tag-lite HTRF, Tb-labeled AT2R cells, angiotensin receptor red agonist); format: binding; settings: 1 h room temperature
Sequence of AT2 Receptor (AT2R) (P50052 whole entry): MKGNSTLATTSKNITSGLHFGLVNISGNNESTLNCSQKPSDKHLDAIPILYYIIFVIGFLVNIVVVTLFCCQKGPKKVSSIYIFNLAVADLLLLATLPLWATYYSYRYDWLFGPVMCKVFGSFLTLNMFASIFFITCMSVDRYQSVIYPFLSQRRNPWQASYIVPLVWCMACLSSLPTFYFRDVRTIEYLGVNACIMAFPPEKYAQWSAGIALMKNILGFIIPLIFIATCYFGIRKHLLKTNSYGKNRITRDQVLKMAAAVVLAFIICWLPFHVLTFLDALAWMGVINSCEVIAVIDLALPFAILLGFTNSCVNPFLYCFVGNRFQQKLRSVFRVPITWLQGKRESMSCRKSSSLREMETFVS

Sequence of AT1 Receptor (AT1R) (P30556 whole entry): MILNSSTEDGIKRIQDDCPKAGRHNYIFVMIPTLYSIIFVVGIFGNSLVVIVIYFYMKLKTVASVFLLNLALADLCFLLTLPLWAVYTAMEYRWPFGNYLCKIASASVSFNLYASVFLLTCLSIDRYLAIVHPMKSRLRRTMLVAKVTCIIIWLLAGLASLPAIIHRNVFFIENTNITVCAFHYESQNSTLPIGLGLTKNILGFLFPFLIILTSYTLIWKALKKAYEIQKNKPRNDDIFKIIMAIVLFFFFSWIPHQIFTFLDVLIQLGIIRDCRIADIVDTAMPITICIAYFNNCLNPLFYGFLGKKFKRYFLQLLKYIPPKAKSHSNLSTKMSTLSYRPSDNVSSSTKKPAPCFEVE

CN(Cc1ccccn1)C(=O)N1[C@H]2CC[C@@H]1[C@@H](C(=O)O)N(C(=O)C(c1ccccc1)c1ccccc1)C2 [Compound C123, (1R,2S,5S)-3-(2,2-diphenylacetyl)-8-(methyl(pyridine-2-ylmethyl)carbamoyl)-3,8-diazabicyclo [3.2.1]octane-2-carboxylic acid]
IC50 (AT1 Receptor (AT1R)): > 10000 nM
IC50 (AT2 Receptor (AT2R)): 11.7 nM

CN(Cc1ccccc1Cl)C(=O)N1[C@H]2CC[C@@H]1[C@@H](C(=O)O)N(C(=O)N(c1ccccc1)c1ccccc1)C2 [Compound C149, (1R,2S,5S)-8-((2-chlorobenzyl) (methyl)carbamoyl)-3-(diphenylcarbamoyl)-3,8-diazabicyclo [3.2.1]octane-2-carboxylic acid]
IC50 (AT1 Receptor (AT1R)): > 10000 nM
IC50 (AT2 Receptor (AT2R)): 16.6 nM

CN(Cc1ccc(Cl)cc1)C(=O)N1[C@H]2CC[C@@H]1[C@@H](C(=O)O)N(C(=O)N(c1ccccc1)c1ccccc1)C2 [Compound C150, (1R,2S,5S)-8-((4-chlorobenzyl) (methyl)carbamoyl)-3-(diphenylcarbamoyl)-3,8-diazabicyclo [3.2.1]octane-2-carboxylic acid]
IC50 (AT1 Receptor (AT1R)): > 10000 nM
IC50 (AT2 Receptor (AT2R)): 9.82 nM

CCN(Cc1ccccc1)C(=O)N1[C@H]2CC[C@@H]1[C@@H](C(=O)O)N(C(=O)N(c1ccccc1)c1ccccc1)C2 [Compound C155, (1R,2S,5S)-8-(benzyl (ethyl)carbamoyl)-3-(diphenylcarbamoyl)-3,8-diazabicyclo [3.2.1]octane-2-carboxylic acid]
IC50 (AT1 Receptor (AT1R)): > 10000 nM
IC50 (AT2 Receptor (AT2R)): 9.03 nM

CC(C(=O)N1C[C@@H]2CC[C@H]([C@H]1C(=O)O)N2C(=O)OCc1ccccc1)(c1ccccc1)c1ccccc1 [Compound C157]
IC50 (AT1 Receptor (AT1R)): > 10000 nM
IC50 (AT2 Receptor (AT2R)): 27.1 nM

Cc1ccc(CN(C)C(=O)N2[C@H]3CC[C@@H]2[C@@H](C(=O)O)N(C(=O)N(c2ccccc2)c2ccccc2)C3)cc1 [Compound C162, (1R,2S,5S)-3-(diphenylcarbamoyl)-8-(methyl(4-methylbenzyl)carbamoyl)-3,8-diazabicyclo [3.2.1]octane-2-carboxylic acid]
IC50 (AT1 Receptor (AT1R)): > 10000 nM
IC50 (AT2 Receptor (AT2R)): 4.04 nM

COc1ccc(CN(C)C(=O)N2[C@H]3CC[C@@H]2[C@@H](C(=O)O)N(C(=O)N(c2ccccc2)c2ccccc2)C3)cc1 [Compound C166]
IC50 (AT1 Receptor (AT1R)): > 10000 nM
IC50 (AT2 Receptor (AT2R)): 4.42 nM

CN(Cc1ccc(C#N)cc1)C(=O)N1[C@H]2CC[C@@H]1[C@H](C(=O)O)N(C(=O)N(c1ccccc1)c1ccccc1)C2 [Compound C167, (1R,2R,5S)-8-((4-cyanobenzyl) (methyl)carbamoyl)-3-(diphenylcarbamoyl)-3,8-diazabicyclo [3.2.1]octane-2-carboxylic acid]
IC50 (AT1 Receptor (AT1R)): > 10000 nM
IC50 (AT2 Receptor (AT2R)): 18.9 nM
